Assay results reported in patent US20260083742A1, “HOMOLOGOUS RECOMBINATION REPAIR DEFICIENCY (HRD) AS A PREDICTIVE BIOMARKER FOR TREATING CANCER WITH WEE1 INHIBITORS” (Zeno Management, Inc., priority 2023, published 2026).

Experiments:
[1] = system: 22RV1 (prostate cancer cell line) subcutaneous xenografts; test: 22RV1 subcutaneous xenograft tumor growth inhibition; type: in vivo, CB17 SCID mice
Method: The prostate cancer cell line 22RV1 harbors a BRCA2 pathogenic mutation (HRD+). Briefly, 72 tumor-bearing mice were randomized and assigned into nine groups using a randomized block design based on their tumor volumes with eight mice per group. Each mouse was inoculated subcutaneously at the right flank with 22RV1 tumor cells in 0.2 mL mixture of Matrigel (5×10^6 cells/mouse). Treatments were started when the tumor size reached 199.94 mm^3 for tumor efficacy studies (Day 14 post inoculation). [table] Tumor size was measured twice weekly in two dimensions using caliper and expressed in mm3 using the formula: where a and b were long and short diameters of the tumor. The tumor size was used for calculations of T/C %. The T/C(%) was calculated according to the following formula: Two-way ANOVA followed by Bonferroni post-test was performed to compare tumor volumes among vehicle and other groups.

[2] = system: MDA-MB-436 Ola^R (BRCA reversion) TNBC cell line; test: In vitro activity (IC50) in olaparib-resistant MDA-MB-436; type: cell-based; details: Homo sapiens; MDA-MB-436 Ola^R; read-out: In vitro activity (IC50) Olaparib^R (BRCA reversion)
Method: (§1) Cells with BRCA reversion mutations may be considered HRD+due to genome instability (such as TAI, LST, LOH). BRCA reversion mutation is an established mechanism of resistance to both platinum-based chemotherapeutic drugs and PARP inhibitors. In vivo exploration of WEE1 inhibitors (azenosertib, adavosertib) and PARP inhibitors (niraparib, olaparib) was evaluated.
(§2) MDA-MB-436 PARP inhibitor-resistant lines were generated by long-term in vitro treatment with a PARP inhibitor that is olaparib (Ola^R) or niraparib (Nir^R).

[3] = system: MDA-MB-436 niraparib-resistant model; test: MDA-MB-436 niraparib-resistant CDX model in vivo; details: azenosertib 80 mg/kg
Description: (§3) MDA-MB-436 PARP inhibitor-resistant lines were generated by long-term in vitro treatment with a PARP inhibitor that is olaparib (Ola^R) or niraparib (Nir^R). Resistant cells were confirmed by sequencing to have BRCA1 reversion mutation. The parental MDA-MB-436 cell line remains sensitive to PARP inhibitors as expected (FIG. 5A), while the Nir^R (FIG. 5B) and Ola^R (FIG. 5C) MDA-MB-436 cell lines are no longer sensitive to PARP inhibitors but are sensitive to azenosertib. Azenosertib activity was further confirmed in the PARP inhibitor-resistant MDA-MB-436 CDX model in vivo. […] WEE1 inhibitor or PARP inhibitor treatment in the Parental TNBC animal model (without PARP inhibitor resistance) is shown in FIG. 5D.

[4] = system: SUM149PT TNBC xenograft (BRCA1 splice isoform Δ11q); test: SUM149PT TNBC xenograft tumor growth inhibition; type: in vivo, mice
Method: SUM149PT is a TNBC xenograft model harboring a BRCA1 splice isoform (Δ11q) that produces a truncated, partially functional protein which thereby promotes PARP inhibitor resistance. Azenosertib monotherapy and its combination with olaparib or AZD5305 was evaluated in the SUM149PT model in vivo in mice (FIGS. 10A-10B), and Table 12 summarizes the groups and treatments. Single agent treatment with olaparib at 100 mg/kg QD (FIG. 10A) or with the PARP1 selective inhibitor, AZD5305, at 0.1 or 1 mg/kg QD (FIG. 10B) confirmed SUM149PT resistance to PARP inhibitors.

[5] = system: MDA-MB-436 Nir^R (BRCA reversion) TNBC cell line; test: In vitro activity (IC50) in niraparib-resistant MDA-MB-436; type: cell-based; details: Homo sapiens
Method: as §1, §2

[6] = system: HRD+ cells UWB1289, HCC1937, COV362, HCC1569, HCC1395; test: In vitro cell viability (CellTiter-Glo) in a panel of HRD+ cells; type: cell-based; details: HRD+ cells both PARP inhibitor-sensitive and PARP inhibitor-resistant, 5 cell doublings
Method: Azenosertib, olaparib and AZD5305 (PARP1-selective inhibitor) were individually tested in vitro in a panel of HRD+ cells as indicated in Table 10. Briefly, cells were seeded in their recommended media at a density of 1,000 cells per well into 96 well plates. After 24 hr, drug treatment was performed and cells were incubated in a 37° C. for 5 cell doublings. Cell viability was measured using CellTiter-Glo (CTG) (Promega) according to the manufacturer's recommendations. Percent viability was calculated as percentage of cell viability relative to DMSO-only vehicle control. Dose-response curves were fit with Graphpad Prism 9 to determine IC50 values.

[7] = system: HBCx-9, HBCx-10 and HBCx-17 triple-negative breast cancer (TNBC) PDX models; test: Anti-tumor efficacy in TNBC patient-derived xenograft models; type: in vivo, mice; details: HBCx-10 and HBCx-17 (HRD+) vs HBCx-9 (HRD-); azenosertib 60 mg/kg, niraparib 35 mg/kg
Description: Treatments were initiated 28 days post implantation of the tumor cells. The study period ended 28 days after the start of treatment. [table]

[8] = system: HGSOC with HRD+ status (BRCA1m); test: Human subject with HRD+ platinum-resistant, PARP inhibitor-resistant ovarian cancer treated with azenosertib; type: in vivo; details: one subject
Method: A subject with HGSOC selected to have HRD+ status (e.g., BRCA1m) confirmed by qualitative next-generation sequencing based in vitro diagnostic test (FoundationOne®CDx) was administered azenosertib in accordance with an intermittent dosing schedule of at least 400 mg azenosertib once a day for five consecutive days, followed by two off days. The subject received azenosertib for five months. The subject is a person who received 7 prior lines of therapy: (1) carboplatin/paclitaxel/bevacizumab/olaparib (PD); (2) Pembrolizumab (PD); (3) NaPi2b targeting-ADC (XMT-1536) (PD); (4) carboplatin/gemcitabine/bevacizumab (PD); (5) Pegylated doxorubicin (PD); (6) Topotecan (PD); (7) PABP-1 RNP (ATRC-101) (PD).

[9] = system: MDA-MB-436 olaparib-resistant model; test: MDA-MB-436 olaparib-resistant CDX model in vivo; details: azenosertib 80 mg/kg
Description: as §3

[10] = azenosertib 60 mg/kg p.o. qd × 5 3 cycle
[11] = azenosertib 80 mg/kg p.o. qd × 5 3 cycle

## C=CCn1c(=O)c2cnc(Nc3ccc(N4CCN(C)CC4)cc3)nc2n1-c1ccc2c(n1)[C@@](O)(CC)CC2 [Azenosertib, azenosertib]
[1]; [10]
  % TGI Day 5: 54.08%
  % TGI Day 8: 32.68%
  % TGI Day 12: 44.02%
  % TGI Day 15: 26.61%
  % TGI Day 19: 14.55%
[1]; [11]
  % TGI Day 5: 38.26%
  % TGI Day 8: 23.80%
  % TGI Day 12: 26.16%
  % TGI Day 15: 19.47%
  % TGI Day 19: 38.13%
[2]
  IC50: 174 nM
[3]
  tumor volume compared to the PARP inhibitor: significant reduction in tumor volume
[4]; monotherapy azenosertib 60 mg/kg QD 5:2
  TGI: 82%
[4]; monotherapy azenosertib 80 mg/kg QD 5:2
  TGI: 91%
[4]; monotherapy azenosertib 100 mg/kg QD 5:2
  TGI: 101%
[5]
  IC50: 185 nM
[6]
  tumor cell growth (dose response curves): reduces tumor cell growth
[7]
  tumor growth inhibition in HRD+ models compared to the HRD- model: increased tumor growth inhibition
[8]; after treatment with azenosertib
  target lesion on scan: no longer visualized
[8]; at least 400 mg azenosertib once a day, five days on, two off, five months, 7 prior lines
  cPR (confirmed partial response): −48%
[9]
  tumor volume compared to the PARP inhibitor: significant reduction in tumor volume
